Test results reported in patent US6339151B1, “Enzyme catalyzed therapeutic agents” (NewBiotics, Inc., priority 1998, dated 2002).
Each block holds one molecule with its values, some of them ahead of it.

Key:
[1] = tested on: H630R10 (colon cancer cell line); assay: Crystal violet cell proliferation assay; assay type: cell-based, human; conditions: for IC50: Homo sapiens
Protocol: (§1) Two cell lines, H630R10 (Copur, et al. (1995)) and normal colon epithelial cells, CCD18co (ATCC) were used in these assays. The H630P (Copur et al. (1995)) cell line was selected for resistance to 10 μM 5-FU to give rise to H630R10. The characterization of these cell lines which expresses an elevated level of the TS enzyme. A normal colon epithelial cell type CCD18co (available from the ATCC) was used for comparison with H630R10 for sensitivity to test compounds.
(§2) The ability of the test compounds to block proliferation of cells was determined by the crystal violet procedure (Sugarman et al. (1985) and Antelman et al. (1995)).
(§3) Compounds were dissolved in dimethyl sulfoxide to a concentration of 1M. They were further diluted as necessary into DMEM cell culture medium, and subsequently into the first wells of the 96 Well microtiter plate. Each concentration was tested in triplicate on the target cell line. Compound concentrations from 1 μM to 3000 μM were tested. Cells were incubated with compound for 72 hours, the plates were washed, and the cells fixed with methanol and stained with crystal violet as described in Sugarman et al. ([…]) and Antelman, et al. (1995).

[2] = tested on: CCD18co (normal colon epithelium); assay: Crystal violet cell proliferation assay; assay type: cell-based, human; conditions: for IC50: Homo sapiens, CCD-18Co
Protocol: as §1, §2, §3

Normal Cells = assay: Alamar Blue Assay, mean over normal cells; assay type: cell-based; conditions: mean of the three normal cell types; read-out: mean IC50 (X̄)
Sarcoma (Saos 2) = assay: Alamar Blue Assay; assay type: cell-based; conditions: Homo sapiens
Breast (MCF7) = assay: Alamar Blue Assay; assay type: cell-based; conditions: Homo sapiens
[3] = tested on: Colon Epithelium (CCD18co); assay: Alamar Blue Assay; assay type: cell-based; conditions: Homo sapiens, CCD-18Co
Skin Fibroblast (DET551) = assay: Alamar Blue Assay; assay type: cell-based
Lung Epithelium (W138) = assay: Alamar Blue Assay; assay type: cell-based
Breast (MDA 468) = assay: Alamar Blue Assay; assay type: cell-based
Tumor Cells = assay: Alamar Blue Assay, mean over tumor cells; assay type: cell-based; conditions: mean of the three tumor cell lines; read-out: mean IC50 (X̄)
[4] = tested on: Metastatic Carcinoma (UT) breast cells; conditions: 4 samples; cited from earlier work
[5] = tested on: Metastatic Carcinoma (Rx) breast cells; conditions: 10 samples; cited from earlier work
[6] = tested on: Primary Carcinoma (UT) breast cells; conditions: 19 samples; cited from earlier work
[7] = Table 6, H630R10, 72 hours, standard error less than 20%

IC50 [1, 7]: 2880 ± 54.5 µM
SMILES: O=c1[nH]c(=O)n([C@H]2C[C@H](O)[C@@H](CO)O2)cc1/C=C/Br [BVDU, (E)-5-(2-bromovinyl)-2′-deoxyuridine]
activity in the proliferation assay ([1]; CCD18co and H630R10, Table 6 line 2): little activity | difference in sensitivity of the two cell lines ([1]; CCD18co vs H630R10): no significant difference | IC50 ([2]; Table 6, CCD18co, 72 hours, standard error less than 20%): 2540 ± 58.2 µM

IC50 [1, 7]: 170 ± 2.4 µM | IC50 ([1]; Table 7, H630R10 (colon cancer cell line), representative data from several assays, triplicate wells): 170 µM
SMILES: O=c1[nH]c(=O)n([C@H]2C[C@H](O)[C@@H](CO)O2)cc1F [Compound 5-FUdR, 5-fluoro-2′-deoxyuridine]
IC50 ([2]; Table 7, CCD18co (normal colon epithelium), representative data from several assays, triplicate wells): 9.5 µM | fold more sensitive CCD18co than H630-R10 ([2]; normal colon epithelial CCD18co vs H630-R10 colon tumor cells): approximately 18 fold

IC50 (Sarcoma (Saos 2)): 11.3 µM | IC50 (Breast (MCF7)): 0.61 µM | IC50 (Tumor Cells): 4.1 µM
SMILES: O=c1[nH]cc(F)c(=O)[nH]1 [5-Fluorouracil, 5-fluorouracil]
IC50 (Normal Cells): 0.57 µM | IC50 [3]: 0.2 µM | IC50 (Skin Fibroblast (DET551)): 1.1 µM | IC50 (Lung Epithelium (W138)): 0.4 µM | IC50 (Breast (MDA 468)): 0.4 µM

SMILES: COc1cccc2c1C(=O)c1c(O)c3c(c(O)c1C2=O)C[C@@](O)(C(=O)CO)C[C@@H]3O[C@H]1C[C@H](N)[C@H](O)[C@H](C)O1 [Doxorubicin, doxorubicin]
Average IC50 [4]: 0.036 ± 0.0263 µg/mL | Average IC50 [5]: 0.0198 ± 0.0127 µg/mL | Average IC50 [6]: 0.0114 ± 0.0068 µg/mL
